Assay results taken from patent US7572786B2, “Substituted 1-piperidin-3-yl-4-piperidin-4-yl-piperazine derivatives and their use as neurokinin antagonists” (Janssen Pharmaceutica, N.V., priority 2002, dated 2009).

Legend:
Type in all cases: cell-based
NK1 = NK1 (Homo sapiens, UniProt P25103); assay: Signal transduction (ST), intracellular Ca++ (FLIPR), NK1 antagonism; settings: read-out: pIC50 NK1 (converted)
Procedure, shortened: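 Confluent cells were loaded with 2 μM Fluo3 with probenecid for 1 h at 37°C, then preincubated with antagonist concentration ranges for 20 min at RT before agonist addition. Peak FLIPR calcium transient was taken as signal; IC50 from non-linear regression of sigmoidal curves.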

NK2 = target: T1, NK2 (Homo sapiens, UniProt P21452); assay: Signal transduction (ST), intracellular Ca++ (FLIPR), NK2; settings: read-out: pIC50 NK2 (converted)
T1 sequence (P21452 1-398): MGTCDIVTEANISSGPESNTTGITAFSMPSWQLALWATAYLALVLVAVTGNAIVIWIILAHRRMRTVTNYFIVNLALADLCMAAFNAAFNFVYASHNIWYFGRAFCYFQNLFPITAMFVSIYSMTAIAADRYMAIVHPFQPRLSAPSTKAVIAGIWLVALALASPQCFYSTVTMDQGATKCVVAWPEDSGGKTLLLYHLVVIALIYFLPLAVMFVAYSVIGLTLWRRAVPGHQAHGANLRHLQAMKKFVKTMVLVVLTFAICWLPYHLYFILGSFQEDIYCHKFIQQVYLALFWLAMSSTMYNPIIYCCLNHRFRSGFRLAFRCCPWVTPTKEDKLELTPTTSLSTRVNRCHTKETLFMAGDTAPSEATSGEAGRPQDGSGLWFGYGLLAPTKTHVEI

NK3 = target: T2, NK3 (Homo sapiens, UniProt P29371); assay: Signal transduction (ST), intracellular Ca++ (FLIPR), NK3; settings: read-out: pIC50 NK3 (converted)
T2 sequence (P29371 1-465): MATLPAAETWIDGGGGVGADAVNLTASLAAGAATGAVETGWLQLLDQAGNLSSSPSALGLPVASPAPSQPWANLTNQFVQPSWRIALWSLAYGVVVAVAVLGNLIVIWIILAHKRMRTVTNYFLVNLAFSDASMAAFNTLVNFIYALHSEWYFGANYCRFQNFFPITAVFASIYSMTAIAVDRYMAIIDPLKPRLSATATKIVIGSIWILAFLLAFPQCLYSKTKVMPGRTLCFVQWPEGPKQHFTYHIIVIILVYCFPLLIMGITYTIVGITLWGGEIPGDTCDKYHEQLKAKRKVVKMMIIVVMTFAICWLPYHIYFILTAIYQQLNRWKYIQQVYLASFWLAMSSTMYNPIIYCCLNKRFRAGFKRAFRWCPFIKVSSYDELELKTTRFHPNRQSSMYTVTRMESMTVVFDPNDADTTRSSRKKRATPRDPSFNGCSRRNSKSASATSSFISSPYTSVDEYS

NK1, sequence (P25103 whole entry): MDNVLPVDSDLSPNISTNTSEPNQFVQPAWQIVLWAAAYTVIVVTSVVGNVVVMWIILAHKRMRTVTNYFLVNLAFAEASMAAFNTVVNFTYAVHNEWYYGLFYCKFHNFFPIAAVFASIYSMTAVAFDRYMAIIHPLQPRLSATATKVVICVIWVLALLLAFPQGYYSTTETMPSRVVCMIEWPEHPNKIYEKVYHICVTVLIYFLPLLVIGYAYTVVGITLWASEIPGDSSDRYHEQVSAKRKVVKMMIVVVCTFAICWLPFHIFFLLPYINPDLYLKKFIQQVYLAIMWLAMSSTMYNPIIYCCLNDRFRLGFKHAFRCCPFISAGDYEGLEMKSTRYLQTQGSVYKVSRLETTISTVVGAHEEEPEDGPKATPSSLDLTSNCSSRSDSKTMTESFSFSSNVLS

IC50 (NK1) [nM]	IC50 (NK2) [nM]	IC50 (NK3) [nM]	Structure (SMILES)
63.1	5010	7940	O=C(c1cc(C(F)(F)F)cc(C(F)(F)F)c1)N1CC[C@H](N2CCN(C3CCCN(C(CO)c4ccccc4Cl)C3)CC2)C[C@H]1Cc1ccccc1 (stereo partly drawn) [Compound 89]
15.8	5010	501	COc1ccccc1C(=O)N1CCCC(N2CCN([C@H]3CCN(C(=O)c4cc(C(F)(F)F)cc(C(F)(F)F)c4)[C@H](Cc4ccccc4)C3)CC2)C1 (stereo partly drawn) [Compound 47]
